Results taken from PubChem BioAssay (NCI).
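Interpolation was linear, between the two tested concentrations surrounding the appropriate level; five concentrations were tested over 48 hours in 96-well plates. GI50: concentration for 50% inhibition of growth. At the TGI there is no net growth.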

How the values were obtained:
Test in all cases: NCI-60 cell line screen, 48 h
786-0 renal = tested on: 786-0 renal
A498 renal = tested on: A498 renal
A549 NSCLC = tested on: A549 NSCLC
ACHN renal = tested on: ACHN renal
BT-549 breast = tested on: BT-549 breast
CAKI-1 renal = tested on: CAKI-1 renal
CCRF-CEM leukemia = tested on: CCRF-CEM leukemia
COLO 205 colon = tested on: COLO 205 colon
DU-145 prostate = tested on: DU-145 prostate
EKVX NSCLC = tested on: EKVX NSCLC
HCC-2998 colon = tested on: HCC-2998 colon
HCT-116 colon = tested on: HCT-116 colon
HCT-15 colon = tested on: HCT-15 colon
HL-60(TB) leukemia = tested on: HL-60(TB) leukemia
HOP-62 NSCLC = tested on: HOP-62 NSCLC
HOP-92 NSCLC = tested on: HOP-92 NSCLC
HS 578T breast = tested on: HS 578T breast
HT29 colon = tested on: HT29 colon
IGROV1 ovarian = tested on: IGROV1 ovarian
K-562 leukemia = tested on: K-562 leukemia
KM12 colon = tested on: KM12 colon
LOX IMVI melanoma = tested on: LOX IMVI melanoma
M14 melanoma = tested on: M14 melanoma
MALME-3M melanoma = tested on: MALME-3M melanoma
MCF7 breast = tested on: MCF7 breast
MDA-MB-231 breast = tested on: MDA-MB-231 breast
MDA-MB-435 = tested on: MDA-MB-435
MOLT-4 leukemia = tested on: MOLT-4 leukemia
NCI-H226 lung = tested on: NCI-H226 lung

COc1cc(OC)cc(C(=O)Nc2cccc(C#Cc3cccc4[nH]nc(N)c34)c2)c1
GI50 (786-0 renal): 2240 nM
TGI (786-0 renal): 11300 nM
GI50 (A498 renal): 4500 nM
TGI (A498 renal): 11100 nM
GI50 (A549 NSCLC): 1430 nM
TGI (A549 NSCLC): 18300 nM
GI50 (ACHN renal): 2640 nM
TGI (ACHN renal): 14700 nM
GI50 (BT-549 breast): 1320 nM
TGI (BT-549 breast): 6320 nM
GI50 (CAKI-1 renal): 1640 nM
TGI (CAKI-1 renal): 7180 nM
GI50 (CCRF-CEM leukemia): 808 nM
TGI (CCRF-CEM leukemia): > 56000 nM
GI50 (COLO 205 colon): 1160 nM
TGI (COLO 205 colon): 3630 nM
GI50 (DU-145 prostate): 2930 nM
TGI (DU-145 prostate): > 39000 nM
GI50 (EKVX NSCLC): 2920 nM
TGI (EKVX NSCLC): > 38200 nM
GI50 (HCC-2998 colon): 1980 nM
TGI (HCC-2998 colon): 4920 nM
GI50 (HCT-116 colon): 548 nM
TGI (HCT-116 colon): 10700 nM
GI50 (HCT-15 colon): 492 nM
TGI (HCT-15 colon): 12500 nM
GI50 (HL-60(TB) leukemia): 441 nM
TGI (HL-60(TB) leukemia): 2510 nM
GI50 (HOP-62 NSCLC): 1710 nM
TGI (HOP-62 NSCLC): 22500 nM
GI50 (HOP-92 NSCLC): 2300 nM
TGI (HOP-92 NSCLC): 11700 nM
GI50 (HS 578T breast): 1250 nM
TGI (HS 578T breast): 5430 nM
GI50 (HT29 colon): 641 nM
TGI (HT29 colon): 5370 nM
GI50 (IGROV1 ovarian): 1130 nM
TGI (IGROV1 ovarian): 11100 nM
GI50 (K-562 leukemia): 331 nM
TGI (K-562 leukemia): > 100000 nM
GI50 (KM12 colon): 957 nM
TGI (KM12 colon): 10400 nM
GI50 (LOX IMVI melanoma): 759 nM
TGI (LOX IMVI melanoma): 7180 nM
GI50 (M14 melanoma): 535 nM
TGI (M14 melanoma): 4550 nM
GI50 (MALME-3M melanoma): 782 nM
TGI (MALME-3M melanoma): 13100 nM
GI50 (MCF7 breast): 469 nM
TGI (MCF7 breast): 12300 nM
GI50 (MDA-MB-231 breast): 1280 nM
TGI (MDA-MB-231 breast): 5140 nM
GI50 (MDA-MB-435): 201 nM
TGI (MDA-MB-435): 490 nM
GI50 (MOLT-4 leukemia): 931 nM
TGI (MOLT-4 leukemia): 17800 nM
GI50 (NCI-H226 lung): 1930 nM
TGI (NCI-H226 lung): 9030 nM
